Test results taken from patent US6921824B1, “Ruthenium dimeric complexes suitable as antimetastatic and antineoplastic agents” (priority 1999, dated 2005).

What was measured:
MCa mammary carcinoma [1] = assay: Post-surgical treatment: inhibition of lung metastases at advanced stage of growth, MCa mammary carcinoma; assay type: in vivo, CBA mice; details: for Lung metastases Number % T/C / Lung metastases weight % T/C: Treated/Control; for Lung metastases Number / Lung metastases Weight: evaluated day 28; for Growth of the lung metastases (in words): post-surgical treatment at LD0.05 dosages
Description: In vivo testing of the activity of the compounds according to the present invention in mice affected by MCa mammary carcinoma: inhibition activity of lung metastases at an advanced stage of growth.
Five groups of CBA kin female mice weighing 23±3 g were inoculated with […] viable MCa mammary carcinoma cells (as determined by trypan blue exclusion) in 0.05 ml Dulbecco's pH 7.4 buffered calcium- and magnesium-free solution (PBS) by intramuscular injection with a sterile insulin syringe. The tumour cells were derived from donors of the same strain injected with the same tumour cells and with the same procedures 2 weeks before. The suspension of tumour cells was prepared in PBS by mechanical mincing of the tumour mass obtained from donor mice, and further removal of tissue debris and cells was obtained, respectively, by filtration through a double layer of sterile gauze and centrifugation at 250× g for 10 minutes. Kin animals were obtained from a colony from Chester Beatthy from London (UK) and were grown in the University of Trieste animal house accordingly to the procedures accepted for the rearing of kin animals. The MCa mammary carcinoma tumour cell-line was derived from a stock, stored in liquid nitrogen, of tumour cells originally obtained from Rudjer Boskovic Institute of Zagreb (HR).
On day 14 since tumour cells implantation, the primary tumour was surgically removed, after general anesthesia of the animals by intraperitoneal injection of 125 mg/kg of Ketamine.
From day 15 to day 20 after tumour cells implantation, the five mice groups were treated, intraperitoneally with a sterile insulin syringe, respectively with: • Group 1 Control (7 animals): 10 ml/kg of body weight/day of sterile and pyrogen-free physiological solution; • Group 2 (7 animals): 28 mg/kg of body weight/day of the compound as prepared in Example 4 in sterile and pyrogen-free physiological solution; • Group 3 (7 animals): 28 mg/kg of body weight/day of the compound as prepared in Example 7 in sterile and pyrogen-free physiological solution; • Group 4 (7 animals): 51 mg/kg of body weight/day of the compound as prepared in Example 8 in sterile and pyrogen-free physiological solution; • Group 5 (7 animals): 52 mg/kg of body weight/day of the compound as prepared in Example 10 in sterile and pyrogen-free physiological solution.
(§1) The dosages corresponding to the LD0.05, calculated separately in animals of the same strain and gender and having the same body weight, was administered intraperitoneally for 6 consecutive days, according to the method of Lichtfield and Wilcoxon, and with an observation time of 10 days since last dose.
On day 28 since tumour cells implantation, the mice were sacrificed by cervical dislocation for the evaluation of lung metastases. The lungs were abducted from the animals immediately after sacrifice, divided in single lobes that were soon examined with a low-magnification microscope equipped with a graduated ocular-grid for the measurement of metastases size, where the orthogonal axes a and b (a≦b) were identified. The metastases were then classified by size and the metastatic tumour weight for each animal was calculated as the sum of each single metastasis weight, each of them considered as a rotation solid developed around the above mentioned axes according to the formula (π/6)·a^2·b. The experimental data obtained were then processed by appropriate statistical tests.
The results are reported in Table 2, where the number and weight of lung metastases obtained in groups of animals treated with the compounds of the present invention with respect to the group of controls treated with sterile and pyrogen-free physiological solution, are shown.

[2] = LD0.05 determination, intraperitoneal treatment for 6 consecutive days (Lichtfield and Wilcoxon); assay type: in vivo; details: observation time 10 days since last dose
Description: as §1

MCa mammary carcinoma [3] = assay: Pre-surgical treatment: prevention of lung metastases formation in mice with MCa mammary carcinoma; assay type: in vivo; details: for Lung metastases Number % T/C / Lung metastases weight % T/C: Treated/Control; for Lung metastases Number mean / Lung metastases weight (mg) mean: evaluated day 29; for Body weight % var: variation day 11 to day 16 vs untreated controls; for Selectivity of action on lung metastases versus primary tumour: MCa mammary carcinoma model of the CBA mouse; for Number of lung metastases (in words) / Weight of lung metastases (in words): at two dose levels, pre-surgical treatment
Description: In vivo tests of the activity of the compounds according to the present invention in mice affected from MCa mammary carcinoma: prevention activity in the formation of lung metastases.
Five groups of CBA kin female mice weighing 23±3 g were inoculated with […] viable cells (as determined by the Trypan blue exclusion) of MCa mammary carcinoma in 0.05 ml Dulbecco's pH 7.4 buffered calcium and magnesium-free solution (PBS), by intramuscular injection with a sterile insulin syringe. The tumour cells were derived from donors of the same strain, injected with the same tumour cells, following the same procedures 2 weeks before. The suspension of tumour cells was prepared in PBS by mechanically mincing the tumour mass obtained from donor mice, and further removing tissue debris and cells by, respectively, filtration through a double layer of sterile gauze and centrifugation at 250× g for 10 minutes. Kin animals were obtained from a colony from Chester Beatthy from London (UK) which were grown in the University of Trieste animal house accordingly to the procedures accepted for the rearing of kin animals. The MCa mammary carcinoma tumour cell-line derived from a stock, stored in liquid nitrogen, of tumour cells obtained originally from Rudjer Boskovic Institute of Zagreb (HR).
From day 11 to day 16, after tumour cells implantation, five mice groups were treated intraperitoneally with a sterile insulin syringe, respectively with: • Group 1 Control (10 animals): 10 ml/kg of body weight/day of sterile and pyrogen-free physiological solution; • Group 2 (two subgroups a,b of five animals each): 7.5 (a), 15 (b) mg/kg of body weight/day of the compound prepared as described in Example 4 in sterile and pyrogen-free physiological solution; • Group 3 (2 subgroups c,d of five animals each): 15 (c), 30 (d) mg/kg of body weight/day of the compound prepared as described in Example 7 in sterile and pyrogen-free physiological solution; • Group 4 (2 subgroups e,f of 5 animals each): 25 (e), 50 (f) mg/kg of body weight/day of the compound prepared as described in Example 8 in sterile and pyrogen-free physiological solution; • Group 5 (2 subgroups g,h of 5 animals each): 12.5 (g), 25 (h) mg/kg of body weight/day of the compound prepared as described in Example 10 in sterile and pyrogen-free physiological solution.
The administered dosages were either approximated to LD0.1, or to half of it or to a quarter of it, as calculated separately in animals of the same strain and gender and with the same body weight, for an intraperitoneal treatment lasting 6 consecutive days, according to the method of Lichtfield and Wilcoxon, and with an observation time of 10 days since the last dose.
On day 17 since tumour cells implantation, the primary tumour was surgically removed, after general anesthesia of the animals by intraperitoneal injection of 125 mg/kg of Ketamine.
On day 29 since tumour cells implantation, the mice were sacrificed by cervical dislocation for the evaluation of lung metastases. The lungs were abducted from the animals immediately after sacrifice, divided in single lobes which then examined immediately with a low-magnification microscope equipped with a graduated ocular-grid for the measurement of the size of the metastases in which the a and b orthogonal axes (a≦b) were identified. Metastases were classified by size and the metastatic tumour weight for each animal was calculated as the sum of each single metastasis weight, each of them considered as a rotation solid developed around the above mentioned axes and calculated according to the formula (π/6)·a^2·b. The experimental data obtained were then processed by appropriate statistical tests. […]

[4] = 28 mg/kg of body weight/day i.p. day 15-20, post-surgical
[5] = 7.5 mg/kg/die i.p. day 11-16, pre-surgical
[6] = 15 mg/kg/die i.p. day 11-16, pre-surgical
[7] = 30 mg/kg/die i.p. day 11-16, pre-surgical
[8] = 52 mg/kg of body weight/day i.p. day 15-20, post-surgical
[9] = 12.5 mg/kg/die i.p. day 11-16, pre-surgical
[10] = 25 mg/kg/die i.p. day 11-16, pre-surgical
[11] = 51 mg/kg of body weight/day i.p. day 15-20, post-surgical
[12] = 50 mg/kg/die i.p. day 11-16, pre-surgical

Molecule	Lung metastases Number % T/C (MCa mammary carcinoma [1]; [4])	Lung metastases weight % T/C (MCa mammary carcinoma [1]; [4])	Lung metastases Number (MCa mammary carcinoma [1]; [4])	Lung metastases Weight (MCa mammary carcinoma [1]; [4])	Growth of the lung metastases (in words) (MCa mammary carcinoma [1])	LD0.05 [2]	Lung metastases Number % T/C (MCa mammary carcinoma [3]; [6])	Lung metastases weight % T/C (MCa mammary carcinoma [3]; [6])	Lung metastases Number mean (MCa mammary carcinoma [3]; [6])	Lung metastases weight (mg) mean (MCa mammary carcinoma [3]; [6])	Body weight % var (MCa mammary carcinoma [3]; 15 mg/kg/die i.p. day 11-16)	Selectivity of action on lung metastases versus primary tumour (MCa mammary carcinoma [3])	Number of lung metastases (in words) (MCa mammary carcinoma [3])	Weight of lung metastases (in words) (MCa mammary carcinoma [3])	Lung metastases Number % T/C (MCa mammary carcinoma [3]; [10])	Lung metastases weight % T/C (MCa mammary carcinoma [3]; [10])	Lung metastases Number mean (MCa mammary carcinoma [3]; [10])	Lung metastases weight (mg) mean (MCa mammary carcinoma [3]; [10])	Body weight % var (MCa mammary carcinoma [3]; 25 mg/kg/die i.p. day 11-16)	further results
C[SH](C)(=O)[Ru-]([Cl])([Cl])([Cl])([Cl])[n+]1cc[n+]([Ru-]([Cl])([Cl])([Cl])([Cl])[SH](C)(C)=O)cc1.[Na+].[Na+] [Example 4, [Na]2[trans-RuCl4(Me2SO)]2(μ-pyz)]	80%	39%	41.4 ± 8.0	96 ± 20 mg	reduce significantly	28 mg/kg of body weight/day	4%	0%	2.0	0.2 mg	−3.3%	act selectively on lung metastases	marked reduction	even more marked reduction	–	–	–	–	–	Lung metastases Number % T/C (MCa mammary carcinoma [3]; [5]): 27%; Lung metastases weight % T/C (MCa mammary carcinoma [3]; [5]): 10%; Lung metastases Number mean (MCa mammary carcinoma [3]; [5]): 14.0; Lung metastases weight (mg) mean (MCa mammary carcinoma [3]; [5]): 8 mg; Body weight % var (MCa mammary carcinoma [3]; 7.5 mg/kg/die i.p. day 11-16): −4.6%
C[SH](C)(=O)[Ru-]([Cl])([Cl])([Cl])([Cl])[n+]1ccc[n+]([Ru-]([Cl])([Cl])([Cl])([Cl])[SH](C)(C)=O)c1.[Na+].[Na+] [Example 7, [Na]2[trans-RuCl4(Me2SO)]2(μ-pym)]	78%	44%	40.4 ± 7.4	107 ± 31 mg	reduce significantly	28 mg/kg of body weight/day	10%	2%	5.0	1.7 mg	−1.4%	act selectively on lung metastases	marked reduction	even more marked reduction	–	–	–	–	–	Lung metastases Number % T/C (MCa mammary carcinoma [3]; [7]): 6%; Lung metastases weight % T/C (MCa mammary carcinoma [3]; [7]): 1%; Lung metastases Number mean (MCa mammary carcinoma [3]; [7]): 3.0; Lung metastases weight (mg) mean (MCa mammary carcinoma [3]; [7]): 0.8 mg; Body weight % var (MCa mammary carcinoma [3]; 30 mg/kg/die i.p. day 11-16): −2.7%
C[SH](C)(=O)[Ru-]([Cl])([Cl])([Cl])([Cl])[n+]1ccc(CCc2cc[n+]([Ru-]([Cl])([Cl])([Cl])([Cl])[SH](C)(C)=O)cc2)cc1.[Na+].[Na+] [Example 10, [Na]2[trans-RuCl4(Me2SO)]2(μ-etbipy)]	–	–	–	–	reduce significantly	52 mg/kg of body weight/day	–	–	–	–	–	act selectively on lung metastases	marked reduction	even more marked reduction	25%	1%	13.0	1.2 mg	−1.1%	Lung metastases Number % T/C (MCa mammary carcinoma [1]; [8]): 53%; Lung metastases weight % T/C (MCa mammary carcinoma [1]; [8]): 29%; Lung metastases Number (MCa mammary carcinoma [1]; [8]): 27.8 ± 7.8; Lung metastases Weight (MCa mammary carcinoma [1]; [8]): 71 ± 20 mg; Lung metastases Number % T/C (MCa mammary carcinoma [3]; [9]): 15%; Lung metastases weight % T/C (MCa mammary carcinoma [3]; [9]): 6%; Lung metastases Number mean (MCa mammary carcinoma [3]; [9]): 8.0; Lung metastases weight (mg) mean (MCa mammary carcinoma [3]; [9]): 4.6 mg; Body weight % var (MCa mammary carcinoma [3]; 12.5 mg/kg/die i.p. day 11-16): −2.8%
[Na]2[trans-RuCl4(Me2SO)]2(μ-bipy) [Example 8]	–	–	–	–	reduce significantly	51 mg/kg of body weight/day	–	–	–	–	–	act selectively on lung metastases	–	–	213%	144%	111	119 mg	−3.4%	Lung metastases Number % T/C (MCa mammary carcinoma [1]; [11]): 40%; Lung metastases weight % T/C (MCa mammary carcinoma [1]; [11]): 31%; Lung metastases Number (MCa mammary carcinoma [1]; [11]): 20.6 ± 7.3; Lung metastases Weight (MCa mammary carcinoma [1]; [11]): 76 ± 31 mg; Lung metastases Number % T/C (MCa mammary carcinoma [3]; [12]): 15%; Lung metastases weight % T/C (MCa mammary carcinoma [3]; [12]): 4%; Lung metastases Number mean (MCa mammary carcinoma [3]; [12]): 8.0; Lung metastases weight (mg) mean (MCa mammary carcinoma [3]; [12]): 3.1 mg; Body weight % var (MCa mammary carcinoma [3]; 50 mg/kg/die i.p. day 11-16): −1.7%
